Laboratory results as given in article PMC9137581, “Identification of a Novel Class of Anti-Melanogenic Compounds, (Z)-5-(Substituted benzylidene)-3-phenyl-2-thioxothiazolidin-4-one Derivatives, and Their Reactive Oxygen Species Scavenging Activities” (Antioxidants, 2022).

Tests used:
[1] = test system: intracellular ROS in B16F10 cells; test: Intracellular ROS scavenging activity assay (DCFH-DA, SIN-1); format: cell-based, murine; conditions: ≤ 20 µM, 10 µM SIN-1, B16F10 cells
Description: ROS scavenging activity was determined as has previously been described by Ali et al. and Lebel and Bondy. Briefly, DCFH-DA (2′,7′-dichlorodihydrofluorescein-diacetate) (2.5 mM; Molecular Probes, Eugene, OR, USA) mixed with esterase (1.5 units/mL) in a phosphate buffer (50 mM; pH 7.4) was incubated for 30 min at 37 °C and then placed on ice in the dark until it was required. In order to determine their intracellular ROS scavenging activities, B16F10 cells (1 × 10^4/well) were seeded in black 96-well plates and incubated for 24 h. The cells were then co-treated with the analogs and SIN-1 (3-morpholinosydnonimine) (10 µM), as previously described, for 2 h. DCFH-DA (20 µM) was added for 30 min in the dark and the fluorescence intensities of the oxidized DCFH were measured using a microplate reader (Tecan, Männedorf, Switzerland) at excitation and emission wavelengths of 485 and 530 nm, respectively. Trolox was used as the positive control.
We investigated the effects of the analogs on intracellular ROS (reactive oxygen species) because, reportedly, ROS might regulate melanogenesis in melanoma cells. The principle of the intracellular ROS assay that was used is that DCFH-DA (2′,7′-dichlorodihydrofluorescein diacetate) spreads across the cell membrane and is enzymatically hydrolyzed by esterases to DCFH (2′,7′-dichlorodihydrofluorescein), which reacts with ROS in order to generate DCF (2′,7′-dichlorofluorescein), which is fluorescent. Thus, the intracellular ROS scavenging activities of (Z)-BPTT analogs 1–3 and 6 were investigated in vitro using DCFH-DA. SIN-1 (3-morpholinosydnonimine) and trolox were used as a RNS/ROS generator [54] and a positive control, respectively.

[2] = biological target: T1, cellular tyrosinase in B16F10 cells (Mus musculus, UniProt P11344); test: Cellular tyrosinase activity (L-DOPA oxidation in lysates); format: cell-based, murine; conditions: for inhibition of α-MSH plus IBMX-induced cellular tyrosinase activity compared with kojic acid: analog at 20 µM
T1 construct: endogenous in cells; host or cells: B16F10 murine melanoma cells (ATCC), stimulated with α-MSH and IBMX
T1 sequence (P11344 19-533): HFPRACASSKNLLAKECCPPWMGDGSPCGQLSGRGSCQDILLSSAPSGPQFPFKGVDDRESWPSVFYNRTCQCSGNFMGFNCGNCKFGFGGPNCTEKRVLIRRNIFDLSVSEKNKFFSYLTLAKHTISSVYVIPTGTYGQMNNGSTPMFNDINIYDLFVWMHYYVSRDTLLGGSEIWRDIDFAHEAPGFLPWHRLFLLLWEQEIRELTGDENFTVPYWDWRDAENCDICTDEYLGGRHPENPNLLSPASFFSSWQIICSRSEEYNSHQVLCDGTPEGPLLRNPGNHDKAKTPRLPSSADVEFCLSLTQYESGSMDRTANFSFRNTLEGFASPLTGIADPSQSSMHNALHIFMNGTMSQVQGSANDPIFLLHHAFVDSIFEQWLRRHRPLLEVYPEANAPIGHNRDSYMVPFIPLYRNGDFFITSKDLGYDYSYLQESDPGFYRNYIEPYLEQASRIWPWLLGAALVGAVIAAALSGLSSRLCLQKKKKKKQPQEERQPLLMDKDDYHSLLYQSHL
Description: The cellular tyrosinase activity was examined by assessing the oxidation rate of L-DOPA, as was previously described, with a slight modification. In brief, B16F10 cells were seeded at a density of 1 × 10^5 cells/well in a 6-well plate and allowed to adhere to the well bases using the same conditions that were used for cell culturing. […] After incubation for 48 h under the same conditions that were used for cell culturing, the cells were rinsed twice with PBS and then exposed to 100 µL of a lysis buffer solution (90 µL of 50 mM phosphate buffer in pH 6.5, 5 µL of 2 mM PMSF, and 5 µL of 20% Triton X-100) and held for 30 min at −80 °C. After defrosting, the cell lysates were centrifuged at 12,000 rpm for 30 min at 4 °C. Then, 10 mM L-DOPA (20 µL) was mixed with the supernatants (80 µL) of the lysates in a 96-well plate. The absorbances of these mixtures were measured at 492 nm every 10 min for 1 h at 37 °C using a microplate reader (VersaMax™, Molecular Devices, Sunnyvale, CA, USA). All of these experiments were conducted individually in triplicate. […] Briefly, B16F10 cells were seeded in 6-well culture plates and pretreated with four different concentrations (0, 5, 10, or 20 µM) of each of the four analogs for 1 h, and then the cells were co-stimulated with α-MSH and IBMX for 48 h at 37 °C so as to increase their cellular tyrosinase activity. Their optical densities (ODs) were then measured using a microplate reader at 492 nm in order to quantify the dopachrome production. The inhibitory effect of each analog on cellular tyrosinase activity was evaluated using these ODs. Kojic acid (20 µM) was used as a positive control.

mushroom tyrosinase = biological target: T2, mushroom tyrosinase (Agaricus bisporus, UniProt C7FF04); test: Mushroom tyrosinase inhibition assay (L-tyrosine substrate); format: biochemical; conditions: for IC50: L-tyrosine substrate, means ± SEMs of triplicate determinations; for potency of mushroom tyrosinase inhibition relative to kojic acid: ratio of IC50 values versus kojic acid
T2 construct: purchased Sigma-Aldrich
T2 sequence (C7FF04 1-392 limits assumed): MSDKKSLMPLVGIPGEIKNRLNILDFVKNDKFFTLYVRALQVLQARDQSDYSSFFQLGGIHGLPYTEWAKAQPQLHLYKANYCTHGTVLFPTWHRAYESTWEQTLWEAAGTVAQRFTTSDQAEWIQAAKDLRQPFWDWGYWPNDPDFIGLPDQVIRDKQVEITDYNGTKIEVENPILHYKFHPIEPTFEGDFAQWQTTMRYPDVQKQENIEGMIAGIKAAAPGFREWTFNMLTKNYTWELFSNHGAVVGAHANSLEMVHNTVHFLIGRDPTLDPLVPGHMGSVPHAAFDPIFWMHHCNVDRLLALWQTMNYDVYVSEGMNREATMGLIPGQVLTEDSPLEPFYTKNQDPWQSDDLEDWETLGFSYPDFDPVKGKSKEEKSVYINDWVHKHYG
Description: In order to examine the inhibitory effect of the (Z)-BPTT analogs on tyrosinase activity, commercially available mushroom tyrosinase (Sigma-Aldrich, St. Louis, MO, USA) was used. The mushroom tyrosinase-inhibitory activities of the analogs were determined as described previously with modification. Briefly, 20 µL (20 units) of an aqueous mushroom tyrosinase solution was added to each well of a 96-well microplate containing 170 µL of a substrate mixture consisting of 345 μM of L-tyrosine solution, 17.2 mM phosphate buffer (pH 6.5), and 10 µL of a (Z)-BPTT analog solution at different concentrations or 10 µL of a kojic acid solution (2, 10, or 50 μM). After incubating the assay mixtures for 30 min at 37 °C, the remaining tyrosinase activities were calculated from the amounts of dopachrome that were formed as determined by measuring their absorbance at 492 nm using a microplate reader (VersaMax™, Molecular Devices, Sunnyvale, CA, USA). The curves of the IC50 values that were derived from the X-axis of the inhibitor concentration versus the amount of product that was produced were determined by aligning the dose–response curve with the Y-axis. Inhibition experiments were performed in triplicate using three to six different concentrations of the (Z)-BPTT analogs or kojic acid. Log–linear curves and their equations were determined by using inhibition percentages at three to six analog concentrations. The individual IC50 values were determined by reading the concentrations on the Y-axis at 50% inhibition. The results are the means of three independent experiments.
The tyrosinase-inhibitory activities were screened against mushroom tyrosinase using L-tyrosine as a substrate, as previously described. Kojic acid, a representative tyrosinase inhibitor, was used as a positive control. […]. All 13 of the (Z)-BPTT analogs inhibited tyrosinase activity in a concentration-dependent manner. The IC50 values are shown in Table 2, along with the analog substitutions.

Compound	intracellular ROS scavenging activity [1]	inhibition of α-MSH plus IBMX-induced cellular tyrosinase activity compared with kojic acid [2]	IC50 (mushroom tyrosinase)	potency of mushroom tyrosinase inhibition relative to kojic acid (mushroom tyrosinase)	cellular tyrosinase activity as percentage of non-treated control ([2]; 10 µM, α-MSH plus IBMX co-stimulated)	inhibition of cellular tyrosinase activity compared with kojic acid ([2]; analog at 5 µM)	enhancement of inhibitory activity relative to analog 4 (mushroom tyrosinase; ratio of IC50 values versus analog 4)
O=C1/C(=C/c2ccc(O)cc2)SC(=S)N1c1ccccc1 [Analog 1, (Z)-5-(4-Hydroxybenzylidene)-3-phenyl-2-thioxothiazolidin-4-one]	did not show ROS scavenging activity	more than kojic acid at 20 µM	1450 ± 40 nM	12 fold			
O=C1/C(=C/c2ccc(O)c(O)c2)SC(=S)N1c1ccccc1 [Analog 2, (Z)-5-(3,4-Dihydroxybenzylidene)-3-phenyl-2-thioxothiazolidin-4-one]	significantly and concentration-dependently reduced SIN-1-induced increases in the intracellular ROS activity and it did so to a greater extent than trolox		1380 ± 110 nM		< 100%	significantly inhibited tyrosinase activity more than kojic acid did at 20 µM	
O=C1/C(=C/c2ccc(O)cc2O)SC(=S)N1c1ccccc1 [Analog 3, (Z)-5-(2,4-Dihydroxybenzylidene)-3-phenyl-2-thioxothiazolidin-4-one]		more than kojic acid at 20 µM	590 ± 30 nM	29 fold			
COc1ccc(/C=C2\SC(=S)N(c3ccccc3)C2=O)cc1O [Analog 6, (Z)-5-(3-Hydroxy-4-methoxybenzylidene)-3-phenyl-2-thioxothiazolidin-4-one]	did not show ROS scavenging activity	more than kojic acid at 20 µM	1880 ± 700 nM				43 fold
